Data set [1] can be described thus: Stability of calcifediol in acidic dissolution media (Example 4). The format is physicochemical. To be noted: pH 1.2 medium, 37° C., after 6 hours. On the procedure:
The stability of calcifediol was tested in acidic dissolution media at ambient/light conditions and also in dark conditions, at 37° C., 20° C., and 10° C., using 30 μg calcifediol extended release capsules.

The subject of a further data set is Plasma iPTH. Nature of the data set: Repeated-dose study (Example 3): plasma iPTH-lowering response. The format is in vivo, human. As to conditions: EAP2. The protocol: (§1) A study is carried out with repeated-dosing of ERC (Rayaldee® (calcifediol) extended-release capsules), IR calcifediol (“IRC”), high-dose cholecalciferol (“HDC”), and paricalcitol plus low-dose cholecalciferol (“PLDC”) in adult patients with secondary hyperparathyroidism (SHPT), stage 3 or 4 chronic kidney disease (CKD) and vitamin D insufficiency.
(§2) This is an open-label study to gather comparative data evaluating the ERC, IR calcifediol, high-dose cholecalciferol, and paricalcitol plus low-dose cholecalciferol. Eligible subjects were randomized 1:1:1:1 to receive 8 weeks of treatment with one of the listed study medications with a sufficient quantity of a non-alcoholic beverage to enable swallowing of the capsules: • 1) ERC capsules 60 μg once daily at bedtime, except on Days 1 and 29 when dosing occurred in the morning before breakfast in the phase 1 unit; • 2) IR calcifediol 266 μg before breakfast on the mornings of Day 1 and Day 29 in the phase 1 unit; • 3) cholecalciferol 300,000 IU (high-dose) before breakfast on the mornings of Day 1 and Day 29 in the phase 1 unit; and • 4) paricalcitol 1 μg (possibly increasing to 2 μg per day at Day 29) plus cholecalciferol 800 IU (low-dose) once daily in the morning before breakfast, except on the mornings of Days 1 and 29 when dosing occurred before breakfast in the phase 1 unit. […]

A short description of data set [2]: Repeated-dose study in SHPT, stage 3 or 4 CKD, vitamin D insufficiency: serum total 25-hydroxyvitamin D. The format is in vivo, human. As to conditions: target of 30 ng/mL; end of second month of treatment (EAP2). On the procedure: as §1, §2

Consider `C=C1CC[C@H](O)C/C1=C/C=C1\CCC[C@]2(C)[C@@H]([C@H](C)CCCC(C)(C)O)CC[C@@H]12` [calcifediol], for which the degradation entry in data set [1] was “about 90%”.
On to `C=C1CC[C@H](O)C/C1=C/C=C1\CCC[C@]2(C)[C@@H]([C@H](C)CCCC(C)C)CC[C@@H]12` [HDC, cholecalciferol], for which the “plasma iPTH response rate” value was determined as 37.5% in the data set with Plasma iPTH (response = ≥20% reduction from pre-treatment baseline) and 25.0% in the data set on Plasma iPTH (response = ≥30% reduction from pre-treatment baseline). Also, the “serum total 25-hydroxyvitamin D response rate” value in data set [2] is reported as 44%.

For the origin of these results see US20230330110A1, “HARD CAPSULE DOSAGE FORM AND USES THEREOF” (EIRGEN PHARMA LTD., priority 2020, published 2023).
